Reference: publication PMC12169608, “Peptidomimetic Phenoxymethyl Ketone Warheads as Potent Dual-Mode Inhibitors against SARS-CoV‑2 M^pro and Cathepsin” (Journal of Medicinal Chemistry, 2025)
Values after ≈ are worked out from the molar mass of the structure shown.

Legend:
[1] = molecular target: SARS-CoV-2 M^pro (Severe acute respiratory syndrome coronavirus 2, UniProt P0DTD1); test: biochemical; type: biochemical; details: read-out: M^pro biochemical assay pIC50 (converted)
[2] = molecular target: T1, human cathepsin L (hCTSL) (Homo sapiens, UniProt P07711); test: hCTSL biochemical assay
T1 construct: purchased R&D Systems

[3] = molecular target: human cathepsin B (hCTSB) (Homo sapiens, UniProt P07858); test: hCTSB biochemical assay
[4] = molecular target: mouse cathepsin L (mCTSL) (Mus musculus, UniProt P06797); test: mCTSL biochemical assay; details: read-out: pIC50 (mouse CTSL) (converted)
[5] = molecular target: mouse cathepsin B (mCTSB) (Mus musculus, UniProt P10605); test: mCTSB biochemical assay; details: read-out: pIC50 (mouse CTSB) (converted)
[6] = test system: luciferase-expressing VSV (ΔG) pseudotyped with Spike from SARS-CoV-2; test: microbe, parasite or virus in culture; type: cell-based; details: Vesicular stomatitis virus, Vero C1008, read-out: Entry reporter assay pEC50 (converted)
[7] = test system: SARS-CoV-2; test: microbe, parasite or virus in culture; type: cell-based; details: Severe acute respiratory syndrome coronavirus 2, Vero C1008, read-out: SARS-CoV-2 CPE reduction assay pEC50 (converted)
[8] = 3 h, 2 µM
[9] = in vitro; details: African green monkey
[10] = physchem; details: pH 7.4
[11] = in vitro; details: mouse, plasma, mouse plasma protein binding
[12] = in vitro; details: mouse, hepatocytes
[13] = molecular target: hamster CTSL (Mesocricetus auratus, UniProt Q812A7); test: hamster CTSL biochemical assay
[14] = molecular target: T2, thrombin (Homo sapiens, UniProt P00734); test: Protease panel: thrombin; type: biochemical
T2 construct: preincubated with thrombin (10 nM, Sigma); purchased Sigma-Aldrich

[15] = physchem; details: pH 7.4; remark: listed apart in the source
[16] = in vitro; details: hamster, hepatocytes; for hepatocyte CLint at 2 h, 4 µM: CLint (hamster hepatocytes + ritonavir 4:1); for hepatocyte CLint at 2 h, 2 µM: CLint (hamster hepatocytes); for half-life at 2 h, 4 µM: t1/2 (hamster hepatocytes + ritonavir 4:1)
[17] = in vitro; details: hamster, microsomes, pH 7.4
[18] = test system: trypsin; test: Protease panel: trypsin
[19] = Mouse hepatocyte stability; details: mouse, cryopreserved hepatocytes
[20] = Hamster hepatocyte stability; details: cryopreserved hepatocytes, t1/2 (hamster hepatocytes), without ritonavir
[21] = Hamster liver microsomal stability; details: microsomes, pH 7.4
[22] = in vitro; details: mouse, microsomes, pH 7.4
[23] = Mouse liver microsomal stability; details: microsomes, pH 7.4
[24] = % remaining at 120 min (hamster hepatocytes, compound/ritonavir 1:1)
[25] = % remaining at 120 min (hamster hepatocytes, compound/ritonavir 2:1)
[26] = CLint (hamster hepatocytes, compound/ritonavir 1:1)
[27] = CLint (hamster hepatocytes, compound/ritonavir 2:1)
[28] = t1/2 (hamster hepatocytes, compound/ritonavir 1:1)
[29] = t1/2 (hamster hepatocytes, compound/ritonavir 2:1)

T1 sequence (P07711 114-333): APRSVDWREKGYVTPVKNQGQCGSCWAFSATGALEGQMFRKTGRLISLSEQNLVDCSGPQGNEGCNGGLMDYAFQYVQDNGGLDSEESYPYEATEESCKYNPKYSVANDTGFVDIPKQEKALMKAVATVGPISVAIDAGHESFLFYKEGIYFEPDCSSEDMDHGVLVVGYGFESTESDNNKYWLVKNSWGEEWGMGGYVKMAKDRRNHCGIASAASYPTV
Sequence of mouse cathepsin L (mCTSL) (P06797 114-334): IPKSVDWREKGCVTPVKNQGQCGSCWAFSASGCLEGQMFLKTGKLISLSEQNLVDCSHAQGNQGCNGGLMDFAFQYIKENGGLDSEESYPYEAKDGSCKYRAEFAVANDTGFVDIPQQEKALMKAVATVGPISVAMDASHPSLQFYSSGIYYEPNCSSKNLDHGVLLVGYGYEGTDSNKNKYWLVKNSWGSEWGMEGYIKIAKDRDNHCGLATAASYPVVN
Sequence of mouse cathepsin B (mCTSB) (P10605 80-339): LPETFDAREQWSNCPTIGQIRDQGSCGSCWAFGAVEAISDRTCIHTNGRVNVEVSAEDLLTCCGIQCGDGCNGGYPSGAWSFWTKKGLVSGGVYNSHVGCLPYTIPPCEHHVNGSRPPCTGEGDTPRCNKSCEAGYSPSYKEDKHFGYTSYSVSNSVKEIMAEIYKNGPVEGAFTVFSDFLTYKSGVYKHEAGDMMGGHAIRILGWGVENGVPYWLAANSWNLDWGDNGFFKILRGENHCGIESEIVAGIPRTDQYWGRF
Sequence of hamster CTSL (Q812A7 entry or part of it): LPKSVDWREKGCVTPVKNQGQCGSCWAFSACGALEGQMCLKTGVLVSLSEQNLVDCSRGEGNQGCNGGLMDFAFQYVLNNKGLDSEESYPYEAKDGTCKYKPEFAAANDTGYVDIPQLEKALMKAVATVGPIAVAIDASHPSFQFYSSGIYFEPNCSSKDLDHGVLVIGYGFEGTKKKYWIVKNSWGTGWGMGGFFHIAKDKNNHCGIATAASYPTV

SMILES	IC50 [1]	hCTSL biochemical assay pIC50 [2]	hCTSB biochemical assay pIC50 [3]	IC50 [4]	IC50 [5]	EC50 [6]	EC50 [7]	mouse plasma protein binding, fraction bound (Fb) [8]	CC50 [9]	logD at 1 h [10]	fraction unbound at 3 h, 2 µM ([11]; fraction bound (Fb))	fraction unbound at 3 h, 2 µM ([11]; fraction unbound (Fu))	hepatocyte CLint at 2 h, 2 µM ([12]; CLint (mouse hepatocytes))	solubility kinetic at 24 h [15]	remaining at 2 h, 1 µM [16, 24]	remaining at 2 h, 1 µM [16, 25]	hepatocyte CLint at 2 h, 4 µM [16]	hepatocyte CLint at 2 h, 2 µM [16]	hepatocyte CLint at 1 µM [16, 26]	hepatocyte CLint at 1 µM [16, 27]	further results
O=C(N[C@@H](Cc1c[nH]c2ccccc12)C(=O)N[C@@H](C[C@@H]1CCNC1=O)C(=O)COc1c(F)c(F)c(CO)c(F)c1F)c1cc2ccccc2[nH]1 [compound 5, N-((S)-3-(1H-Indol-3-yl)-1-oxo-1-(((S)-3-oxo-1-((S)-2-oxopyrrolidin-3-yl)-4-(2,3,5,6-tetrafluoro-4-(hydroxymethyl)phenoxy)butan-2-yl)amino)propan-2-yl)-1H-indole-2-carboxamide]	41.7 nM	7.64	6.54	224 nM	12.3 nM	5750 nM	1170 nM	98.79%	> 10000 nM	1.5	0.0121	0.0121	182 µL/min/1e6 cells								
CC(C)(C)[C@H](NC(=O)C(F)(F)F)C(=O)N1C[C@H]2[C@@H]([C@H]1C(=O)N[C@@H](C[C@@H]1CCNC1=O)C(=O)COc1c(F)c(F)c(CO)c(F)c1F)C2(C)C [compound 7, (1R,2S,5S)-3-((S)-3,3-Dimethyl-2-(2,2,2-trifluoroacetamido)butanoyl)-6,6-dimethyl-N-((S)-3-oxo-1-((S)-2-oxopyrrolidin-3-yl)-4-(2,3,5,6-tetrafluoro-4-(hydroxymethyl)phenoxy)butan-2-yl)-3-azabicyclo[3.1.0]hexane-2-carboxamide]		< 4.30	4.82	35500 nM	1860 nM		50.1 nM	96.45%	> 501 nM	2.82	0.0355	0.0355		71.3 µM (≈ 50.7 µg/mL)	20.8%	3.47%	41.9 µL/min/1e6 cells	50.2 µL/min/1e6 cells	12.5 µL/min/1e6 cells	27.4 µL/min/1e6 cells	hCTSL activity (in words) ([2]; biochemical assay): no hCTSL and hCTSB activity was observed; hCTSB activity (in words) ([3]; biochemical assay): no hCTSL and hCTSB activity was observed; pIC50 (hamster CTSL) [13]: 5.07 ± 0.10; inhibition at 10 µM [14]: 0.4 ± 0.9%; hepatocyte CLint at 1 µM ([12]; CLint (mouse hepatocytes + ritonavir 4:1)): 21.8 µL/min/1e6 cells; hepatocyte CLint at 1 µM ([12]; CLint (mouse hepatocytes)): 121 µL/min/1e6 cells; half-life at 2 h, 4 µM [16]: 16.6 min; half-life at 1 µM [16, 28]: 55.5 min; half-life at 1 µM [16, 29]: 25.3 min; microsomal CLint at 1 µM [17]: 803 µL/min/mg; remaining at 1 h, 1 µM [17]: 0.15%; Trypsin inhibition at 10 μM [18]: 9.9 ± 6.6%; half-life at 1 µM [19]: 14.3 min; half-life at 2 h, 2 µM [20]: 13.8 min; half-life at 1 µM [21]: 1.73 min
COc1cccc2[nH]c(C(=O)N[C@@H](Cc3cccc(F)c3)C(=O)N[C@@H](C[C@@H]3CCNC3=O)C(=O)COc3c(F)c(F)c(C(C)(C)O)c(F)c3F)cc12 [compound 10, N-((S)-3-(3-Fluorophenyl)-1-oxo-1-(((S)-3-oxo-1-((S)-2-oxopyrrolidin-3-yl)-4-(2,3,5,6-tetrafluoro-4-(2-hydroxypropan-2-yl)phenoxy)butan-2-yl)amino)propan-2-yl)-4-methoxy-1H-indole-2-carboxamide]	7.08 nM	6.95	5.94	933 nM		2040 nM	120 nM	98.95%	> 1260 nM	3.15	0.0105	0.0105	47.6 µL/min/1e6 cells	3.65 µM (≈ 2.67 µg/mL)	11.6%	2.17%	19.4 µL/min/1e6 cells	27.5 µL/min/1e6 cells	16.4 µL/min/1e6 cells	30.7 µL/min/1e6 cells	half-life at 2 h, 4 µM [16]: 35.7 min; half-life at 1 µM [16, 28]: 42.2 min; half-life at 1 µM [16, 29]: 22.6 min; microsomal CLint at 1 µM [22]: 780 µL/min/mg; remaining at 1 h, 1 µM [22]: 0%; microsomal CLint at 1 µM [17]: 500 µL/min/mg; remaining at 1 h, 1 µM [17]: 0%; half-life at 1 µM [19]: 36.4 min; half-life at 2 h, 2 µM [20]: 25.2 min; half-life at 1 µM [23]: 1.9 min; half-life at 1 µM [21]: 2.77 min
